Consider one molecule from patent publication US6461545B1, “Method of solubilizing and encapsulating itraconazole” (Emisphere Technologies, Inc., priority 1995, dated 2002).

Structures are written as SMILES.

The nature of data set [1]: Solubilization of itraconazole in aqueous acetic acid solutions, visually monitored for dissolution (Example 1). Type of data set: physicochemical. The conditions noted are these: 100 mg itraconazole. Here is the method:
Acetic acid solutions were prepared in water to 10%, 20%, 50% and 75% concentrations (expressed as volume glacial acetic acid/total volume of solution ×100). 100 mg itraconazole solute were then mixed independently with 1 ml of each solution and visually monitored for dissolution. If necessary, additional 1 ml aliquots of each acetic acid solution were added until the itraconazole solute was dissolved.

For data set [2] the following is noted: cited from earlier work.

As to `CCC(C)n1ncn(-c2ccc(N3CCN(c4ccc(OCC5COC(Cn6cncn6)(c6ccc(Cl)cc6Cl)O5)cc4)CC3)cc2)c1=O` (racemic) [itraconazole], the Solubility result in data set [1] (10% acetic acid v:v, 1 ml solvent, cold) was “Ins”; in data set [1] (10% acetic acid v:v, 1 ml solvent, hot), “Ins”; in data set [1] (10% acetic acid v:v, 2 ml solvent, cold), “Ins”; in data set [1] (10% acetic acid v:v, 2 ml solvent, hot), “Ins”; in data set [1] (10% acetic acid v:v, 3 ml solvent, cold), “Ins”; in data set [1] (10% acetic acid v:v, 3 ml solvent, hot), “Ins”. The Solubility entry in data set [1] (10% acetic acid v:v, 4 ml solvent, hot) is “Ins”; in data set [1] (20% acetic acid v:v, 1 ml solvent, cold), “Ins”; in data set [1] (20% acetic acid v:v, 1 ml solvent, hot), “Ins”; in data set [1] (20% acetic acid v:v, 2 ml solvent, cold) it was “Ins”; in data set [1] (20% acetic acid v:v, 2 ml solvent, hot), “Ins”; in data set [1] (20% acetic acid v:v, 3 ml solvent, cold), “Ins”. Also, the Solubility entry in data set [1] (20% acetic acid v:v, 3 ml solvent, hot) is listed as “Part”; in data set [1] (50% acetic acid v:v, 1 ml solvent, cold), “Ins”; in data set [1] (50% acetic acid v:v, 1 ml solvent, hot), “Ins”; in data set [1] (50% acetic acid v:v, 2 ml solvent, cold), “Ins”; in data set [1] (50% acetic acid v:v, 2 ml solvent, hot) it was “Sol”; in data set [1] (50% acetic acid v:v, 3 ml solvent, cold), “Ins”. Besides, in data set [1] (75% acetic acid v:v, 1 ml solvent, cold), the Solubility entry is “Sol”. Moreover, in data set [2], the solubility in water result is “less than 0.00001 g/ml”.
